For this experiment, the system named is E. Coli and Klebsiella. Put plainly: In vitro dilution growth/cidal experiments. The class given is cell-based. As to the method:
In vitro dilution growth/cidal experiments were conducted on E. Coli and Klebsiella to determine doses of rifaximin and NAC, including lowest doses of rifaximin and lowest doses of NAC.

Converted amounts (≈) assume the structure as drawn.

Data on two compounds can be found in patent US20250275950A1, “RIFAXIMIN AND N-ACETYL CYSTEINE FORMULATIONS” (Cedars-Sinai Medical Center, priority 2022, published 2025).

Consider `CO[C@H]1/C=C/O[C@@]2(C)Oc3c(C)c(O)c4c(O)c(c5c(nc6cc(C)ccn65)c4c3C2=O)NC(=O)/C(C)=C\C=C\[C@H](C)[C@H](O)[C@@H](C)[C@@H](O)[C@@H](C)[C@H](OC(C)=O)[C@@H]1C` [rifaximin], for which the MIC (Escherichia coli, with NAC concentration of 0.125 mg/mL, E. Coli and Klebsiella, organism of the value not specified, read-out: minimal inhibitory concentration (MIC) for rifaximin) was 4 mg/L (≈ 5.09 µM).

Regarding `CC(=O)N[C@@H](CS)C(=O)O` [NAC, N-acetylcysteine], the “effect of NAC on effectiveness of rifaximin in killing E. coli and Klebsiella” value is “improves the effectiveness of rifaximin”.
